Data as given in patent US20250205158A1, “BIODEGRADABLE LIPIDS AND FORMULATIONS FOR DELIVERY OF MRNA” (Massachusetts Institute of Technology, priority 2023, published 2025).
Where “and” joins values, the source holds several entries; their conditions need not be identical. Identical values can stand only once. Like-named read-outs stand apart in the source and are kept apart here.

Tests used:
mice = conditions: for protein expression relative to MD-1: in vitro and in vivo via intramuscular administration (FIGS. 6A-6B)
Description: Evaluation of the LNPs via intramuscular injection. The in vivo potency of the ionizable lipids was screened through intramuscular injection of LNPs loaded with mRNA encoding firefly luciferase protein. These LNPs were formulated with a molar composition of (35:16:46.5:2.5) using one of the synthesized ionizable lipids, DOPE as a helper lipid, cholesterol, and DMPE-PEG respectively. mRNA-loaded LNPs were intramuscularly administered in mice at a dose of 1 μg, and expression of luciferase protein was monitored at 6 hours via IVIS bioluminescent imaging (FIG. 3). […] Without wishing to be bound by theory, increased levels of protein expression may enhance the response to vaccination.
In Vitro and In Vivo Screening of AMG Lipid Library. Following synthesis, the mRNA delivery efficacy of the AMG lipids was evaluated through both in vitro and in vivo screens. To screen the first generation of AMG lipids (FIGS. 11B and 11C), firefly luciferase (FLuc) mRNA was encapsulated into LNPs using a previously reported formulation containing ionizable lipid, 1,2-dioleoyl-sn-glycero-3-phosphoethanolamine (DOPE), cholesterol, and 1,2-dimyristoyl-rac-glycero-3-methoxypolyethylene glycol-2000 (DMG-PEG).^19 C2C12 myoblast cells were treated with these LNPs and FLuc expression was evaluated at 24 hrs. (FIG. 16). […] Each of these batches was then injected IM into the quadriceps of mice, and expression was characterized via IVIS imaging (Screen 1, FIG. 11E).
AMG lipids for enhanced mRNA delivery and improved tolerability. A rational design approach was used to further vary the ionizable lipid structure to enhance the mRNA delivery and immunogenicity. […] The lipid tail structure was varied to promote efficient LNP self-assembly while simultaneously promoting endosomal membrane disruption.^18 Monounsaturated (G41-G44) or fully saturated (GC12-GC18) lipid tails were developed. […] Without wishing to be bound by any particular theory, tail length may impact membrane fusion and endosomal escape.^10,11
Next, the headgroup was further modified to further improve delivery. Headgroups play a multifunctional role including enhancing LNP-mRNA interactions, promoting membrane-LNP fusion and endosomal escape which all contribute to mRNA delivery.^23 A series of similar aza-crown ethers were used to further investigate structure-activity relationship and enhance mRNA delivery. These headgroups featured between three and eight nitrogens linked by varying length of methylene chains. Each of these headgroups were reacted with tail G41 to synthesize a next generation of AMG lipids, which were then formulated with FLuc mRNA and evaluated for mRNA delivery following IM administration in mice (FIG. 12B).

[1] = tissue not named
[2] = LNP characterization (diameter, PDI, % EE); assay type: physicochemical; conditions: LNP formulated with the named lipid; for Diameter (nm) / PDI: dynamic light scattering; for EE %: Ribogreen assay
Description: Representative LNP Characterization Data. The diameter, polydispersity index (PDI), and % EE were characterized for various LNPs.
LNP characterization. Concentration of mRNA was determined using a Quant-IT Ribogreen assay. LNPs were diluted in either native TE buffer (ThermoFisher) or denaturing TE buffer+0.5% Triton-X 100 (Millipore-Sigma) to measure the “free” and total mRNA, respectively. 100 μL of these unknowns were added to a black 96-well plate. Separately, standard curves ranging from 2 ng/μL-0 ng/μL were prepared in each of these buffers and 100 μL were added to the same 96-well plate. Finally, Quant-IT Ribogreen reagent (ThermoFisher) was diluted 1:200 in TE buffer and 100 μL of this solution was added to each of the wells. The well plate was then mixed at 400 rpm with a plate shaker for 5 mins. and the fluorescence was read with an excitation/emission of 485/535. LNPs were measured in triplicate and standards were measured in duplicate. RNA concentration in each of the unknown wells was calculated by fitting the standard curves with a linear trendline. Encapsulation efficiency (% EE) was calculated according to: […]
Dynamic light scattering and zeta potential measurements were performed using a Malvern Zetasizer system. The reported diameter and PDI were obtained from the cumulants fit of the autocorrelation function. Zeta potential measurements were performed in 0.1×PBS, pH 7.4 and calculated using the Smoluchowski approximation.

BALB/c mice = conditions: spike mRNA LNPs on day 0 and day 21, serum day 35
Description: Briefly, 6-8 week old BALB/c mice were vaccinated with 1 g of mRNA LNPs on day 0 and on day 21, and serum was collected on day 35 to characterize the antibody response to vaccination.
Immunization studies. […] All LNPs were injected IM in the quadricep with an injection volume of 50 μL with the doses specified in the main text. All vaccination experiments followed a prime-boost dosing regimen with doses given on day 0 and day 21. On day 35, mice were sacrificed, and blood was collected via cardiac puncture and their spleens were collected for further characterization.
Binding antibody ELISAs. […] Plates were coated overnight at 4° C. by adding 100 μL of a 1 μg/mL antigen solution in 100 mM carbonate buffer, pH 9.6 to each well. The coated plates were then washed with ELISA wash buffer (Biolegend) and blocked for 1 hr. at room temperature (RT) with 150 μL of 1% BSA in PBS. The plate was then washed again, and 100 μL of serially diluted serum samples were then added to the plate and incubated at RT for 1 hr. Next, the plate was washed and the secondary goat anti-mouse IgG, HRP antibody (ThermoFisher) was diluted 1:3,000. 100 μL of this solution added to each well an incubated at RT for 1 hr. After incubation, the plate was washed and 100 μL of TMB chromogen solution (ThermoFisher) was added to each well and incubated for 30 mins. Finally, the HRP reaction was stopped by the addition of 100 μL of 0.5 M H2SO4. The absorbance of each well was immediately read at 450 nm with 600 nm as a reference using an Infinite M200 Pro (Tecan) plate reader. The resultant data were then fit with a 4-PL sigmodal curve and the endpoint titers were taken as the point at which this curve crossed four times the absorbance of the blank wells.

Compound | Diameter (nm) [2] [nm] | PDI [2] | protein expression relative to MD-1 (mice) | EE % [2] [%] | other results
CCCCCC/C=C\CCCC(=O)OCC(O)CN1CCCN(CC(O)COC(=O)CCC/C=C\CCCCCC)CCN(CC(O)COC(=O)CCC/C=C\CCCCCC)CCCN(CC(O)COC(=O)CCC/C=C\CCCCCC)CC1 (stereo not drawn) [AMG1041] | 81.79 | 0.113 | – | – | fold higher expression than AMG104 (mice; IM, tail derivatives, 5 μg, 24 hours): ~3 fold; [AMG1041] ng/g tissue ([1]; Time 0 hrs): 0 ng/g tissue; [AMG1041] ng/g tissue ([1]; Time 1 hrs): 32200 ng/g tissue and 24800 ng/g tissue and 28000 ng/g tissue; [AMG1041] ng/g tissue ([1]; Time 2 hrs): 14000 ng/g tissue and 23400 ng/g tissue and 20400 ng/g tissue; [AMG1041] ng/g tissue ([1]; Time 4 hrs): 17200 ng/g tissue and 12600 ng/g tissue and 9400 ng/g tissue; [AMG1041] ng/g tissue ([1]; Time 8 hrs): 4800 ng/g tissue and 8000 ng/g tissue; [AMG1041] ng/g tissue ([1]; Time 24 hrs): 600 ng/g tissue; antibody titers after vaccination (BALB/c mice): high levels of antibody titers
CCCCCC/C=C\CCCCOC(=O)CCN1CCN(CCC(=O)OCCCC/C=C\CCCCCC)CCN(CCC(=O)OCCCC/C=C\CCCCCC)CCN(CCC(=O)OCCCC/C=C\CCCCCC)CCN(CCC(=O)OCCCC/C=C\CCCCCC)CCN(CCC(=O)OCCCC/C=C\CCCCCC)CC1 [AMG1559] | – | – | – | – | fold drop in transfection versus AMG1541 (mice; IM, analogue without β-amino alcohol): 34 fold
CCCCCCCCC=CCCCCCCCC(=O)OCC(O)CN1CCCN(CC(O)COC(=O)CCCCCCCC=CCCCCCCCC)CCN(CC(O)COC(=O)CCCCCCCC=CCCCCCCCC)CCCN(CC(O)COC(=O)CCCCCCCC=CCCCCCCCC)CC1 (mixture of isomers) [AMG104] | – | – | – | – | fold higher mRNA expression than the next best lipid AMG1010 (mice; Screen 3, IM, 1 μg, imaged 24 hours post injection): ~5 fold
CCC/C=C\CCCCCCC(=O)OCC(O)CN1CCN(CC(O)COC(=O)CCCCCC/C=C\CCC)CCN(CC(O)COC(=O)CCCCCC/C=C\CCC)CCN(CC(O)COC(=O)CCCCCC/C=C\CCC)CCN(CC(O)COC(=O)CCCCCC/C=C\CCC)CCN(CC(O)COC(=O)CCCCCC/C=C\CCC)CC1 (stereo not drawn) [AMG1549] | 100.4 | 0.234 | superseded or matched MD-1 | 56.9 | –
CCCC/C=C\C/C=C\CCC(=O)OCC(O)CN1CCN(CC(O)COC(=O)CC/C=C\C/C=C\CCCC)CCN(CC(O)COC(=O)CC/C=C\C/C=C\CCCC)CCN(CC(O)COC(=O)CC/C=C\C/C=C\CCCC)CCN(CC(O)COC(=O)CC/C=C\C/C=C\CCCC)CCN(CC(O)COC(=O)CC/C=C\C/C=C\CCCC)CC1 (stereo not drawn) [AMG1553] | 94 | 0.09 | superseded or matched MD-1 | 89.0186 | –
CCC/C=C\C/C=C\CCCC(=O)OCC(O)CN1CCN(CC(O)COC(=O)CCC/C=C\C/C=C\CCC)CCN(CC(O)COC(=O)CCC/C=C\C/C=C\CCC)CCN(CC(O)COC(=O)CCC/C=C\C/C=C\CCC)CCN(CC(O)COC(=O)CCC/C=C\C/C=C\CCC)CCN(CC(O)COC(=O)CCC/C=C\C/C=C\CCC)CC1 (stereo not drawn) [AMG1554] | 105 | 0.1 | superseded or matched MD-1 | 91.711 | –
CCCCCC/C=C\CCCCCCCC(=O)OCC(O)CN1CCCN(CC(O)COC(=O)CCCCCCC/C=C\CCCCCC)CCN(CC(O)COC(=O)CCCCCCC/C=C\CCCCCC)CCCN(CC(O)COC(=O)CCCCCCC/C=C\CCCCCC)CC1 (stereo not drawn) [AMG1043] | 79.27 | 0.169 | – | – | –
CCCC/C=C\CCCCCC(=O)OCC(O)CN1CCN(CC(O)COC(=O)CCCCC/C=C\CCCC)CCN(CC(O)COC(=O)CCCCC/C=C\CCCC)CCN(CC(O)COC(=O)CCCCC/C=C\CCCC)CCN(CC(O)COC(=O)CCCCC/C=C\CCCC)CCN(CC(O)COC(=O)CCCCC/C=C\CCCC)CC1 (stereo not drawn) [AMG1548] | 104.7 | 0.106 | superseded or matched MD-1 | 54.6 | –
CCCCC/C=C\CCCCC(=O)OCC(O)CN1CCN(CC(O)COC(=O)CCCC/C=C\CCCCC)CCN(CC(O)COC(=O)CCCC/C=C\CCCCC)CCN(CC(O)COC(=O)CCCC/C=C\CCCCC)CCN(CC(O)COC(=O)CCCC/C=C\CCCCC)CCN(CC(O)COC(=O)CCCC/C=C\CCCCC)CC1 (stereo not drawn) [AMG1547] | 100 | 0.142 | superseded or matched MD-1 | 85.33 | –
CCCCCC/C=C\CCCC(=O)OCC(O)CN1CCN(CC(O)COC(=O)CCC/C=C\CCCCCC)CCN(CC(O)COC(=O)CCC/C=C\CCCCCC)CCN(CC(O)COC(=O)CCC/C=C\CCCCCC)CCN(CC(O)COC(=O)CCC/C=C\CCCCCC)CCN(CC(O)COC(=O)CCC/C=C\CCCCCC)CCN(CC(O)COC(=O)CCC/C=C\CCCCCC)CC1 (stereo not drawn) [AMG1741] | 88 | 0.156 | – | 82.99 | antibody titers after vaccination (BALB/c mice): high levels of antibody titers
C/C=C\C/C=C\CCCCCC(=O)OCC(O)CN1CCN(CC(O)COC(=O)CCCCC/C=C\C/C=C\C)CCN(CC(O)COC(=O)CCCCC/C=C\C/C=C\C)CCN(CC(O)COC(=O)CCCCC/C=C\C/C=C\C)CCN(CC(O)COC(=O)CCCCC/C=C\C/C=C\C)CCN(CC(O)COC(=O)CCCCC/C=C\C/C=C\C)CC1 (stereo not drawn) [AMG1556] | 96 | 0.121 | superseded or matched MD-1 | 85.76 | –
CC/C=C\C/C=C\CCCCC(=O)OCC(O)CN1CCN(CC(O)COC(=O)CCCC/C=C\C/C=C\CC)CCN(CC(O)COC(=O)CCCC/C=C\C/C=C\CC)CCN(CC(O)COC(=O)CCCC/C=C\C/C=C\CC)CCN(CC(O)COC(=O)CCCC/C=C\C/C=C\CC)CCN(CC(O)COC(=O)CCCC/C=C\C/C=C\CC)CC1 (stereo not drawn) [AMG1555] | 83 | 0.077 | superseded or matched MD-1 | 88.37 | –
C/C=C\CCCCCCCCC(=O)OCC(O)CN1CCN(CC(O)COC(=O)CCCCCCCC/C=C\C)CCN(CC(O)COC(=O)CCCCCCCC/C=C\C)CCN(CC(O)COC(=O)CCCCCCCC/C=C\C)CCN(CC(O)COC(=O)CCCCCCCC/C=C\C)CCN(CC(O)COC(=O)CCCCCCCC/C=C\C)CC1 (stereo not drawn) [AMG1551] | 77 | 0.145 | – | 67.41 | in vivo mRNA delivery of alkene walking tail derivatives (mice; IM, 0.1 μg, 6 hours): loss in potency
CC/C=C\CCCCCCCC(=O)OCC(O)CN1CCN(CC(O)COC(=O)CCCCCCC/C=C\CC)CCN(CC(O)COC(=O)CCCCCCC/C=C\CC)CCN(CC(O)COC(=O)CCCCCCC/C=C\CC)CCN(CC(O)COC(=O)CCCCCCC/C=C\CC)CCN(CC(O)COC(=O)CCCCCCC/C=C\CC)CC1 (stereo not drawn) [AMG1550] | 93 | 0.119 | superseded or matched MD-1 | 78.09 | –
